# Source: BindingDB's records for doi:10.1021/jm00381a012 (1985)
# Target: T1, Angiotensin-converting enzyme (Oryctolagus cuniculus, UniProt P12822)
# T1 sequence (P12822 whole entry): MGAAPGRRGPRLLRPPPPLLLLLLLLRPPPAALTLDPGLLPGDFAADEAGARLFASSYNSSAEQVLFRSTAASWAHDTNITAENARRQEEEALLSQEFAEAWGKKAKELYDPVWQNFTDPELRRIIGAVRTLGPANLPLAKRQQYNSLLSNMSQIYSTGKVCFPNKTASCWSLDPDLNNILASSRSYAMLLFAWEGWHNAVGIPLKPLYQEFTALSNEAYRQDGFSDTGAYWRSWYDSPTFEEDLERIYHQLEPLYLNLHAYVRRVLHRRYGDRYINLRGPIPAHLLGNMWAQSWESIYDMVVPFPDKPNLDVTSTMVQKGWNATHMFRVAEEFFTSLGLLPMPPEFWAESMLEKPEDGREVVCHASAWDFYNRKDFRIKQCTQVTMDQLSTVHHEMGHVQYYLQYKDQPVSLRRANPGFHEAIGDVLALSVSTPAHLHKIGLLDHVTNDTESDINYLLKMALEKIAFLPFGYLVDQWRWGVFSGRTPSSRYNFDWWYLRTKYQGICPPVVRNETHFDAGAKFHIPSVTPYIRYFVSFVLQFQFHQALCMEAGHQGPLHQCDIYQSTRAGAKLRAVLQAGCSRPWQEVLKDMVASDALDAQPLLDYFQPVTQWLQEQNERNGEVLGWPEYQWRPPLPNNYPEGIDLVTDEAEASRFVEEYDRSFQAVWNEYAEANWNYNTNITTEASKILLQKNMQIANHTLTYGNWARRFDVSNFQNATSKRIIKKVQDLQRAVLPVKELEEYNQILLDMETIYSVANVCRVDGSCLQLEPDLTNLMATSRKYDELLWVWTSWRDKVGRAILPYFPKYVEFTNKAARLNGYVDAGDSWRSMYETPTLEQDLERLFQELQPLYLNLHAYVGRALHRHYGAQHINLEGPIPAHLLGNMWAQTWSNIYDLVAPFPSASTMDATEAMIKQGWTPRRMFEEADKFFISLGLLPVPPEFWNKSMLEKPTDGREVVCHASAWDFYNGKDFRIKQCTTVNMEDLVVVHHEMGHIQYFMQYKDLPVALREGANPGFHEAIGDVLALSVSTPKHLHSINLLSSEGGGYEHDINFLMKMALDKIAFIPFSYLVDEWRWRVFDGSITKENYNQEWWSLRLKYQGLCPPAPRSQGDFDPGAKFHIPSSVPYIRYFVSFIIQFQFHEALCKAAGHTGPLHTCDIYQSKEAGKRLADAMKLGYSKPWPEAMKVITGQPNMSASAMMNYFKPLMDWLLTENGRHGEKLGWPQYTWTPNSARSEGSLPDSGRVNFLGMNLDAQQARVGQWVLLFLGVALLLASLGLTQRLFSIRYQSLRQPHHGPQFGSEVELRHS
# Assay: ChEBML_34797
row,Compound,IC50 [µM]
1,O=C(O)CN(C(=O)c1ccc(Cl)cc1S)C1CCCC1,> 100
2,CC(C)(C)C(=O)Sc1ccccc1C(=O)N(CC(=O)O)C1CCCC1,> 100
3,CC(=O)Sc1c(C(=O)N(CC(=O)O)C2CCCC2)cccc1C(C)C,> 100
